From patent US20260209294A1, “USE OF RECOMBINANT PROTEIN IN PREPARING DRUG FOR INHIBITING ANEURYSM” (HUAZHONG UNIVERSITY OF SCIENCE AND TECHNOLOGY, priority 2022, published 2026)

How the values were obtained:
[1] = tested on: VSMC cells; assay: VSMC incubated in vitro with TGF-β1 or pirfenidone (PFD): Western blot, ELISA, RT-PCR; assay type: cell-based; conditions: for level of AGGF1: Western blot, treatment 2 days and 4 days
Description: The VSMCs are starved for 12 hours prior to stimulation with TGF-β1. […] Normalized to β-actin. *, P<0.05; **, P<0.01; ***, P<0.001; n≥4/group for the study.
In FIG. 11, we used VSMC in vitro incubated with TGF-β1 and pirfenidone (PFD). […] In FIG. 12, we used Aggf1 systemic knockout mice for experiments.

[2] = tested on: TAC-induced carotid artery dilation, remodeling, and inflammation; assay: Pirfenidone in TAC model in WT and Aggf1+/- mice; assay type: in vivo; conditions: for level of AGGF1 in the RCA / level of p-ERK1/2 in the RCA / level of p-Smad3 in the RCA: Western blot; for expansion of the right carotid artery / ratio of the flow velocity between right/left carotid: 3 weeks after TAC; for right carotid artery inflammation (MCP1 and CD68) / right carotid artery vascular remodeling (H&E staining, Sirius red and αSMA): after TAC
Source text: The bar graphs below show the intimal thickness (1st graph), the adventitia thickness (2nd graph), the total carotid artery wall thickness (3rd graph), the medial cell density (4th graph), and the adventitia cell density (5th graph). […] The bar graphs on the right show the percentage of the positive area for the respective immunostaining quantification. […] The GAPDH serves as a loading control. *, P<0.05; **, P<0.01; ***, P<0.001; n=5/group for mouse studies, other sample sizes n=4/group. In FIG. 11, we used VSMC in vitro incubated with TGF-β1 and pirfenidone (PFD). […] In FIG. 12, we used Aggf1 systemic knockout mice for experiments.

[3] = Aggf1 heterozygous knockout mice (Aggf1+/-)

Compound | level of AGGF1 [1] | mRNA levels of Tgfb1 and Tgfb2 ([1]; RT-PCR, after 2 days) | synthesis of the mature TGF-β1 ([1]; Western blot 2 and 4 days, ELISA 2 days) | level of AGGF1 in the RCA ([2]; Aggf1+/- mice after TAC) | level of p-ERK1/2 in the RCA ([2]; Aggf1+/- mice after TAC) | level of p-Smad3 in the RCA ([2]; Aggf1+/- mice after TAC) | expansion of the right carotid artery [2, 3] | ratio of the flow velocity between right/left carotid [2, 3] | right carotid artery inflammation (MCP1 and CD68) [2, 3] | right carotid artery vascular remodeling (H&E staining, Sirius red and αSMA) [2, 3] | level of AGGF1 in the RCA ([2]; WT mice after TAC) | level of p-ERK1/2 in the RCA ([2]; WT mice after TAC) | level of p-Smad3 in the RCA ([2]; WT mice after TAC) | expansion of the right carotid artery ([2]; WT mice) | ratio of the flow velocity between right/left carotid ([2]; WT mice) | right carotid artery inflammation (MCP1 and CD68) ([2]; WT mice) | right carotid artery vascular remodeling (H&E staining, Sirius red and αSMA) ([2]; WT mice)
TGF-β1: TGF-β1 used to stimulate VSMC cells in vitro | inhibit |  |  |  |  |  |  |  |  |  |  |  |  |  |  |  | 
Cc1ccc(=O)n(-c2ccccc2)c1 [PFD, pirfenidone] | increased | no effect | inhibited | did not have this effect | did not have this effect | did not have this effect | did not possess such effects | did not possess such effects | did not possess such effects | did not possess such effects | significantly increase | reduce | reduce | significantly reduce | significantly reduce | significantly reduce | significantly reduce
